# From patent US20230072421A1, “TARGETED RADIOPHARMACEUTICALS FOR THE DIAGNOSIS AND TREATMENT OF PROSTATE CANCER” (Bayer AS, priority 2019, published 2023)
# Test: Biodistribution study in LNCaP tumor-bearing mice (Th227 counted in organs)
# Assay type: in vivo, SCID mice
# Conditions: 1500 kBq/kg
# Summary of the method: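 Th227 in excised, weighed organs was counted with a Germanium detector at predetermined time points (n=3 mice each). This followed one i.v. injection of radiolabelled compound into testosterone-supplemented SCID mice carrying LNCaP xenografts in Matrigel, dosed once tumors reached ~50 mm^2.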
smiles,measurement,setting,value
"O=C([O-])CN1CCN(CC(=O)[O-])CCN(CC(=O)NCC2CCC(C(=O)NC(Cc3ccc4ccccc4c3)C(=O)NCCCCC(NC(=O)NC(CCC(=O)O)C(=O)O)C(=O)O)CC2)CCN(CC(=O)[O-])CC1.[227Th+4] [Example 1-B-D-227Th, [^227Th]Thorium-(3S,10S,14R)-3-[(naphthalen-2-yl)methyl]-1,4,12-trioxo-1-{(1r,4S)-4-[(2-{4,7,10-tris[(carboxy-kappaO)methyl]-1,4,7,10-tetraazacyclododecan-1-yl-kappa^4N^1,N^4,N^7,N^10}acetamido)methyl]cyclohexyl}-2,5,11,13-tetraazahexadecane-10,14,16-tricarboxylate]",Th-227 in Blood,0.25 h,4.97% ID Th-227/g organ
same,Th-227 in Liver,0.25 h,1.25% ID Th-227/g organ
same,Th-227 in Spleen,0.25 h,1.91% ID Th-227/g organ
same,Th-227 in Tumor,0.25 h,2.08% ID Th-227/g organ
same,Th-227 in bone,0.25 h,1.70% ID Th-227/g organ
same,Th-227 in brain,0.25 h,0.18% ID Th-227/g organ
same,Th-227 in kidney,0.25 h,10.76% ID Th-227/g organ
same,Th-227 in large intestine,0.25 h,0.75% ID Th-227/g organ
same,Th-227 in lung,0.25 h,3.67% ID Th-227/g organ
same,Th-227 in muscle,0.25 h,0.88% ID Th-227/g organ
same,Th-227 in prostate,0.25 h,6.26% ID Th-227/g organ
same,Th-227 in salivary glands,0.25 h,1.61% ID Th-227/g organ
same,Th-227 in small intestine,0.25 h,1.21% ID Th-227/g organ
same,Th-227 in Blood,1 hr,1.04% ID Th-227/g organ
same,Th-227 in Liver,1 hr,0.59% ID Th-227/g organ
same,Th-227 in Spleen,1 hr,1.09% ID Th-227/g organ
same,Th-227 in Tumor,1 hr,1.16% ID Th-227/g organ
same,Th-227 in bone,1 hr,0.99% ID Th-227/g organ
same,Th-227 in kidney,1 hr,4.11% ID Th-227/g organ
same,Th-227 in large intestine,1 hr,0.18% ID Th-227/g organ
same,Th-227 in lung,1 hr,0.98% ID Th-227/g organ
same,Th-227 in muscle,1 hr,0.24% ID Th-227/g organ
same,Th-227 in prostate,1 hr,2.87% ID Th-227/g organ
same,Th-227 in salivary glands,1 hr,0.52% ID Th-227/g organ
same,Th-227 in small intestine,1 hr,0.26% ID Th-227/g organ
same,Th-227 in Blood,4 hr,0.20% ID Th-227/g organ
same,Th-227 in Liver,4 hr,0.43% ID Th-227/g organ
same,Th-227 in Spleen,4 hr,0.34% ID Th-227/g organ
same,Th-227 in Tumor,4 hr,1.59% ID Th-227/g organ
same,Th-227 in bone,4 hr,1.68% ID Th-227/g organ
same,Th-227 in brain,4 hr,0.01% ID Th-227/g organ
same,Th-227 in kidney,4 hr,2.97% ID Th-227/g organ
same,Th-227 in large intestine,4 hr,0.17% ID Th-227/g organ
same,Th-227 in lung,4 hr,0.43% ID Th-227/g organ
same,Th-227 in muscle,4 hr,0.05% ID Th-227/g organ
same,Th-227 in salivary glands,4 hr,0.30% ID Th-227/g organ
same,Th-227 in small intestine,4 hr,0.17% ID Th-227/g organ
same,Th-227 in Liver,24 h,0.31% ID Th-227/g organ
same,Th-227 in Spleen,24 h,0.23% ID Th-227/g organ
same,Th-227 in Tumor,24 h,0.95% ID Th-227/g organ
same,Th-227 in bone,24 h,1.29% ID Th-227/g organ
same,Th-227 in kidney,24 h,0.83% ID Th-227/g organ
same,Th-227 in large intestine,24 h,0.07% ID Th-227/g organ
same,Th-227 in lung,24 h,0.16% ID Th-227/g organ
same,Th-227 in muscle,24 h,0.00% ID Th-227/g organ
same,Th-227 in salivary glands,24 h,0.09% ID Th-227/g organ
same,Th-227 in small intestine,24 h,0.08% ID Th-227/g organ
same,Th-227 in Liver,96 h,0.31% ID Th-227/g organ
same,Th-227 in Spleen,96 h,0.29% ID Th-227/g organ
same,Th-227 in Tumor,96 h,1.05% ID Th-227/g organ
same,Th-227 in bone,96 h,2.88% ID Th-227/g organ
same,Th-227 in kidney,96 h,0.37% ID Th-227/g organ
same,Th-227 in lung,96 h,0.14% ID Th-227/g organ
same,Th-227 in muscle,96 h,0.00% ID Th-227/g organ
same,Th-227 in salivary glands,96 h,0.13% ID Th-227/g organ
same,Th-227 in small intestine,96 h,0.06% ID Th-227/g organ
